Reference: patent US20250066347A1, “SUBSTITUTED THIAZOLIDINEDIONE DERIVATIVE COMPOUND, AND PHARMACEUTICAL COMPOSITION FOR PREVENTING OR TREATING CANCER, COMPRISING SAME” (MEDIFIC, INC., priority 2021, published 2025)

How the values were obtained:
HOG-GSC cells = test: Comparison of cell viability in brain tumor stem cell (MTS assay); format: cell-based; settings: 72 hours, DMSO control = 1, value below 0.5 = viability decreased by 50% or more
Experimental: HOG-GSC cells which are brain tumor stem cells were treated with 11 compounds at 10 μM and DMSO as a control group, and the number of surviving cells after 72 hours was evaluated by MTS assay.
HOG-GSC which is a brain tumor stem cell was seeded on a 96-well plate at 5000 cells per well, and was cultured in an incubator (ThermoFisher) at 37° C. and 5% CO2 for 24 hours for stabilization of cells. Thereafter, it was treated with 11 compounds of the present invention at […] each, and treated with the same volume of DMSO as a control group as the volume of each compound. After treatment with the compound of the present invention and the control group, cells were cultured in an incubator at 37° C. and 5% CO2 for 72 hours. Thereafter, since there were many living cells in each well, cell viability was quantified using a cell viability assay kit (LPS solution) of which the color becomes darker with an increase in the number of cells. After treatment with the cell viability assay solution, a reaction was performed in an incubator at 37° C. and 5% CO2 for 3 hours to perform coloration, absorbance at 450 nm was measured using a microplate reader (BioTek), and an absorbance intensity of the control group was set to 1 and the absorbance of cells treated with each compound was normalized and is shown in FIG. 2.

SREBP = test: Cell-based assay system using a 6xSRE reporter vector (copGFP intensity) in HOG-GSC-6xSRE-copGFP_HIGH cells; parameters: dose or concentration left out as unconfirmed; settings: copGFP intensity normalized to DMSO control = 1, 72 hours
Source text: First, as shown in (a) of FIG. 1, SRE(5′-ATCACCCCAC-3′) 6 copies which are DNA seCuences to which a transcription factor, SREBP active form bonds were inserted into a minimal CMV promoter 5′ front end of a pGreenfire-Lenti-reporter vector to produce a 6xSRE reporter vector. The 6xSRE reporter vector is a vector system in which a minimal CMV promoter is activated only when SREBP in an activated form bonds to 6xSRE and copGFP is expressed, and after the vector was introduced to HOG-GSC which is a brain tumor stem cell, separation into a GFP high cell and a GFP low cell through FACS sorting was performed. Each of SREBP1a and SREBP1c in an active form was overexpressed in separated GFP-low cells (b of FIG. 1), and it was measured therefrom whether the expression amount of GFP was increased. As a result, it was confirmed that the overexpression of SREBP1a and SREBP1c active forms increased GFP expression by 43.30% and 93.49%, in separated GFP-low cells (c of FIG. 1). The separated GFP-high cells were treated with each of fatostatin and FGH10019 known to inhibit activity of DMSO and SREBP which was a control group to measure a change in the expression amount of GFP, and, as a result, it was confirmed that when treated with known materials, fatostatin and FGH10019, the expression of GFP was inhibited by up to 50% (d of FIG. 1).
HOG-GSC-6xSRE-copGFP_HIGH cells were dispensed into a 96-well plate (Corning) at 5000/well, each well was treated […], and then all wells were photographed every 3 hours for 72 hours in an incubator (ThermoFisher) at […], 5% CO2, using real-time cell imaging equipment (Incucyte) to photograph changes in copGFP intensity.

SMILES | cell viability inhibition effect (normalized MTS value) (HOG-GSC cells) | activity (SREBP)
CC(C)(C)c1ccc(-n2cccc2/C=C2\SC(=O)NC2=O)cc1 [Compound 3, (Z)-5-((1-(4-(tert-butyl)phenyl)-1H-pyrrol-2-yl)methylene) thiazolidine-2,4-dione] | significant cell viability inhibition effect | 1%
Cc1ccc(-c2cc(/C=C3\SC(=O)NC3=O)ccn2)cc1 [Compound 10, (Z)-5-((2-(p-tolyl)pyridin-4-yl)methylene)thiazolidine-2,4-dione] | significant cell viability inhibition effect | 8.8%
O=C1NC(=O)/C(=C/c2ccnc(-c3ccc(C(F)(F)F)cc3)c2)S1 [Compound 12, (Z)-5-((2-(4-(trifluoromethyl)phenyl)pyridin-4-yl)methylene) thiazolidine-2,4-dione] | significant cell viability inhibition effect | 5.9%
O=C1NC(=O)/C(=C/c2ccnc(-c3ccc(OC(F)(F)F)cc3)c2)S1 [Compound 14, (Z)-5-((2-(4-(trifluoromethoxy)phenyl)pyridin-4-yl)methylene) thiazolidine-2,4-dione] | significant cell viability inhibition effect | 1.7%
O=C1NC(=O)/C(=C/c2ccnc(-c3ccc(OCc4ccccc4)cc3)c2)S1 [Compound 15, (Z)-5-((2-(4-(benzyloxy)phenyl)pyridin-4-yl)methylene)thiazolidine-2,4-dione] | significant cell viability inhibition effect | 8.6%
CC(C)(C)c1cccc(-c2cc(/C=C3\SC(=O)NC3=O)ccn2)c1 [Compound 18, (Z)-5-((2-(3-(tert-butyl)phenyl)pyridin-4-yl)methylene)thiazolidine-2,4-dione] | significant cell viability inhibition effect | 1.3%
Cc1cc(C)cc(-c2cc(/C=C3\SC(=O)NC3=O)ccn2)c1 [Compound 19, (Z)-5-((2-(3,5-Dimethylphenyl)pyridin-4-yl)methylene)thiazolidine-2,4-dione] | significant cell viability inhibition effect | 1.8%
O=C1NC(=O)/C(=C/c2ccc(-c3ccc(OC(F)(F)F)cc3)nc2)S1 [Compound 25, (Z)-5-((6-(4-(trifluoromethoxy)phenyl)pyridin-3-yl)methylene) thiazolidine-2,4-dione] | significant cell viability inhibition effect | 6.3%
CC(C)(C)c1ccc(-c2cncc(/C=C3\SC(=O)NC3=O)c2)cc1 [Compound 28, (Z)-5-((5-(4-(tert-butyl)phenyl)pyridin-3-yl)methylene)thiazolidine-2,4-dione] | significant cell viability inhibition effect | 4.8%
CC(C)(C)c1ccc(-c2ccnc(/C=C3\SC(=O)NC3=O)c2)cc1 [Compound 31, (Z)-5-((4-(4-(tert-butyl)phenyl)pyridin-2-yl)methylene)thiazolidine-2,4-dione] | significant cell viability inhibition effect | 4.5%
